Test results published in patent publication US20080207560A1, “Composition For External Use” (priority 2005, published 2008).

Test: Solubility in phosphate buffer (statement)
Assay type: physicochemical

- solubility in phosphate buffer: sparingly soluble
SMILES: CC1=C(/C=C/C(C)=C/C=C/C(C)=C/C(=O)Oc2cc(C)c3c(c2)CC[C@@](C)(CCC[C@H](C)CCC[C@H](C)CCCC(C)C)O3)C(C)(C)CCC1 [d-δ-tocopheryl retinoate]
